Where a name gives a salt, the structure may show the parent alone. Square brackets hold non-standard residues; d marks the D form. Peptide text beside a SMILES is read from it. * marks the point of attachment. Sta = CC(C)C[C@H](N)[C@@H](O)CC(=O)O; Isovaleryl = CC(C)CC(=O)*
Assays:
[1] = system: Raf-1^gof intestinal tumors; assay: Luciferase screen of FDA-approved (NCI) drugs in 96-well plates, flies with Raf-1^gof intestinal tumors; type: in vivo, Drosophila; for Avg (3 + 6): test concentration or dose not given here; for Log2 (fold): test concentration or dose not given here
[2] = system: Raf-1^gof intestinal tumors; settings: assessed three days later; for Log2 (fold) of luciferase activity relative to DMSO controls / Fold (luciferase activity relative to DMSO controls): ICCB compounds fed in vials to flies with one-day old Raf-1^gof tumors; for all read-outs here: test concentration or dose not given here
[3] = average of Day 3 and Day 6 fold
[4] = log2 of the Day 3 fold difference in luciferase relative to DMSO controls
[5] = luciferase activity relative to DMSO controls, single dose of drug for three days, 96-well plates
[6] = six-day protocol: single dose for three days, then another dose for three more days

Structure (SMILES) | Avg (3 + 6) [1, 3] | Log2 (fold) [1, 4] | Day 3 Fold [1, 5] | Day 6 Fold [1, 6] | other results
NCCCNCCSP(=O)(O)O [Amifostine] | 1.239 fold | 0.248 | 1.187 fold | 1.291 fold | 
COc1c2occc2cc2ccc(=O)oc12 [Methoxsalen] | 0.927 fold | −0.016 | 0.989 fold | 0.866 fold | 
CC/C(=C(\c1ccccc1)c1ccc(OCCN(C)C)cc1)c1ccccc1 [Tamoxifen citrate] | 0.919 fold | −0.046 | 0.968 fold | 0.869 fold | 
CCC1=C[C@@H]2CN(C1)Cc1c([nH]c3ccccc13)[C@@](C(=O)OC)(c1cc3c(cc1OC)N(C)[C@H]1[C@@](O)(C(=O)OC)[C@H](OC(C)=O)[C@]4(CC)C=CCN5CC[C@]31[C@@H]54)C2 [Vinorelbine tartrate] | 0.761 fold | −0.190 | 0.877 fold | 0.645 fold | 
COc1cccc2c1C(=O)c1c(O)c3c(c(O)c1C2=O)C[C@@](O)(C(C)=O)C[C@@H]3O[C@H]1C[C@H](N)[C@H](O)[C@H](C)O1 [Daunorubicin HCl] | 0.227 fold | −1.484 | 0.358 fold | 0.096 fold | 
O=C(O)CCCc1ccc(N(CCCl)CCCl)cc1 [Chlorambucil] | 1.022 fold | 0.175 | 1.129 fold | 0.915 fold | 
C/C(=C\c1csc(C)n1)[C@@H]1C[C@@H]2O[C@]2(C)CCC[C@H](C)[C@H](O)[C@@H](C)C(=O)C(C)(C)[C@@H](O)CC(=O)N1 [Ixabepilone] | 0.765 fold | −0.009 | 0.994 fold | 0.536 fold | 
O=C(CCBr)N1CCN(C(=O)CCBr)CC1 [Pipobroman] | 0.853 fold | −0.011 | 0.992 fold | 0.714 fold | 
O=P1(NCCCl)OCCCN1CCCl (stereo not drawn) [Ifosfamide] | 1.004 fold | −0.026 | 0.982 fold | 1.026 fold | 
O=c1[nH]cc(F)c(=O)[nH]1 [Fluorouracil] | 0.770 fold | −0.448 | 0.733 fold | 0.806 fold | 
CS(=O)(=O)CCNCc1ccc(-c2ccc3ncnc(Nc4ccc(OCc5cccc(F)c5)c(Cl)c4)c3c2)o1 [Lapatinib] | 0.976 fold | −0.097 | 0.935 fold | 1.017 fold | 
Nc1nc2nc[nH]c2c(=S)[nH]1 [Thioguanine] | 1.392 fold | 0.495 | 1.409 fold | 1.375 fold | 
Nc1nc(Cl)nc2c1ncn2[C@@H]1O[C@H](CO)[C@@H](O)[C@@H]1F [Clofarabine] | 0.868 fold | −0.164 | 0.893 fold | 0.843 fold | 
O=NN(CCCl)C(=O)NCCCl [Carmustine] | 0.496 fold |  |  |  | Day 3 Fold ([1]; po, 72 h): 0.565 fold; Log2 (fold) ([1]; po, 72 h): −0.823
CCN(CC)CCNC(=O)c1c(C)[nH]c(/C=C2\C(=O)Nc3ccc(F)cc32)c1C [Sunitinib] | 0.816 fold | −0.243 | 0.845 fold | 0.788 fold | 
C=C1C[C@@H]2[C@H](CC[C@]3(C)C(=O)CC[C@@H]23)[C@@]2(C)C=CC(=O)C=C12 [Exemestane] | 0.739 fold | −0.246 | 0.843 fold | 0.634 fold | 
Clc1ccc(C(c2ccccc2Cl)C(Cl)Cl)cc1 (stereo not drawn) [Mitotane] |  |  |  |  | Avg (3 + 6) ([1]; in vivo): 0.882 fold; Day 3 Fold ([1]; in vivo): 0.827 fold; Day 6 Fold ([1]; in vivo): 0.938 fold; Log2 (fold) ([1]; in vivo): −0.274
CCc1c2c(nc3ccc(OC(=O)N4CCC(N5CCCCC5)CC4)cc13)-c1cc3c(c(=O)n1C2)COC(=O)[C@]3(O)CC [Irinotecan HCl] |  |  |  |  | Avg (3 + 6) ([1]; in vivo): 0.705 fold; Day 3 Fold ([1]; in vivo): 0.870 fold; Day 6 Fold ([1]; in vivo): 0.541 fold; Log2 (fold) ([1]; in vivo): −0.201
CC(=O)O[C@]1(C(C)=O)CC[C@H]2[C@@H]3C=C(C)C4=CC(=O)CC[C@]4(C)[C@H]3CC[C@@]21C [Megestrol acetate] | 1.219 fold | 0.418 | 1.336 fold | 1.101 fold | 
NC(=O)NO [Hydroxyurea] | 0.990 fold | −0.184 | 0.880 fold | 1.099 fold | 
C[C@@H](CN1CC(=O)NC(=O)C1)N1CC(=O)NC(=O)C1 [Dexrazoxone] | 0.599 fold | −0.428 | 0.743 fold | 0.454 fold | 

Structure (SMILES) | Avg (3 + 6) [1, 3] | Log2 (fold) [1, 4] | Day 3 Fold [1, 5] | Day 6 Fold [1, 6] | other results
Nc1cccc2c1CN(C1CCC(=O)NC1=O)C2=O (stereo not drawn) [Lenalidomide] | 0.853 fold | −0.117 | 0.922 fold | 0.784 fold | 
Cn1nnc2c(C(N)=O)ncn2c1=O [Temozolomide] | 1.138 fold | −0.032 | 0.978 fold | 1.298 fold | 
O=C(c1ccc(OCCN2CCCCC2)cc1)c1c(-c2ccc(O)cc2)sc2cc(O)ccc12 [Raloxifene HCl] | 1.100 fold | 0.337 | 1.263 fold | 0.936 fold | 
Oc1ncnc2[nH]ncc12 [Allopurinol] | 1.997 fold | 1.281 | 2.430 fold | 1.565 fold | 
Nc1ncn([C@@H]2O[C@H](CO)[C@@H](O)[C@H]2O)c(=O)n1 [Azacitidine] | 1.045 fold | 0.157 | 1.115 fold | 0.976 fold | 
S=P(N1CC1)(N1CC1)N1CC1 [Thiotepa] |  |  |  |  | Avg (3 + 6) ([1]; in vivo): 0.344 fold; Day 3 Fold ([1]; in vivo): 0.353 fold; Day 6 Fold ([1]; in vivo): 0.335 fold; Log2 (fold) ([1]; in vivo): −1.501
Nc1ccn([C@@H]2O[C@H](CO)[C@@H](O)[C@@H]2O)c(=O)n1 [Cytarabine HCl] | 1.112 fold | 0.100 | 1.072 fold | 1.153 fold | 
CC[C@@]1(O)C(=O)OCc2c1cc1n(c2=O)Cc2cc3c(CN(C)C)c(O)ccc3nc2-1 [Topotecan HCl] | 0.233 fold | −1.600 | 0.330 fold | 0.137 fold | 
O=C(CCCCCCC(=O)Nc1ccccc1)NO [Vorinostat] | 0.749 fold | −0.703 | 0.614 fold | 0.883 fold | 
O=C1[O][Pt]2([NH][C@@H]3CCCC[C@H]3[NH]2)[O]C1=O [Oxaliplatin] | 1.082 fold | 0.296 | 1.227 fold | 0.936 fold | 
OC[C@H]1O[C@@H](n2cnc3c2NC=NC[C@H]3O)C[C@@H]1O [Pentostatin] | 0.951 fold |  |  |  | Day 3 Fold ([1]; po, 72 h): 1.232 fold; Log2 (fold) ([1]; po, 72 h): 0.301
N#Cc1ccc(C(c2ccc(C#N)cc2)n2cncn2)cc1 [Letrozole] | 1.302 fold | 0.337 | 1.263 fold | 1.342 fold | 
C1CN1c1nc(N2CC2)nc(N2CC2)n1 [Triethylenemelamine (TEM), Triethylenemelamine] |  |  |  |  | Avg (3 + 6) ([1]; in vivo): 0.301 fold; Day 3 Fold ([1]; in vivo): 0.349 fold; Day 6 Fold ([1]; in vivo): 0.253 fold; Log2 (fold) ([1]; in vivo): −1.519
S=c1nc[nH]c2nc[nH]c12 [Mercaptopurine] | 0.945 fold | 0.101 | 1.072 fold | 0.818 fold | 
N.N.[Cl][Pt][Cl] [Cisplatin] | 1.113 fold | 0.145 | 1.106 fold | 1.120 fold | 
Nc1nc(F)nc2c1ncn2[C@@H]1O[C@H](CO)[C@@H](O)[C@@H]1O [Fludarabine] | 1.191 fold |  |  |  | Day 3 Fold ([1]; po, 72 h): 1.192 fold; Log2 (fold) ([1]; po, 72 h): 0.253
CN(C)/N=N/c1[nH]cnc1C(N)=O [Dacarbazine] | 0.960 fold | −0.010 | 0.993 fold | 0.927 fold | 
Nc1nc2[nH]cc(CCc3ccc(C(=O)N[C@@H](CCC(=O)O)C(=O)O)cc3)c2c(=O)[nH]1 [Pemetrexed] | 0.365 fold | −0.783 | 0.581 fold | 0.149 fold | 
CC(C)CC(=O)N[C@H](C(=O)N[C@H](C(=O)N[C@@H](CC(C)C)[C@@H](O)CC(=O)N[C@@H](C)C(=O)N[C@@H](CC(C)C)[C@@H](O)CC(=O)O)C(C)C)C(C)C [pepstatin] (Isovaleryl-VV[Sta]A[Sta]-OH) |  |  |  |  | Log2 (fold) (luciferase activity, log2 of the fold difference relative to DMSO controls) ([2]; screen of 480 ICCB compounds in vials, compounds fed to flies with one-day old Raf-1^gof tumors, esg-Gal4 luciferase): −0.491; Fold (luciferase activity, fold difference relative to DMSO controls) ([2]; screen of 480 ICCB compounds in vials, compounds fed to flies with one-day old Raf-1^gof tumors, esg-Gal4 luciferase, averaged from multiple wells): 0.711
O=C1CSC(c2ccccc2Cl)c2cc(Cl)ccc2N1 (stereo not drawn) [CGP-37157] |  |  |  |  | Log2 (fold) of luciferase activity relative to DMSO controls [2]: −0.195; Fold (luciferase activity relative to DMSO controls) ([2]; averaged from multiple wells): 0.873 fold
CC(C)(C)c1cc(C=C(C#N)C#N)cc(C(C)(C)C)c1O [tyrphostin 9] |  |  |  |  | Log2 (fold) of luciferase activity relative to DMSO controls [2]: 0.671; Fold (luciferase activity relative to DMSO controls) ([2]; averaged from multiple wells): 1.592 fold

Reference: US20130096067A1, “DROSOPHILA TUMOR STEM CELL MODEL AND USES THEREOF” (priority 2011, published 2013)
